From patent US20210087337A1, “COMPOUNDS, COMPOSITIONS AND METHODS RELATED TO ANTIMICROBIAL APPLICATIONS” (VYOME THERAPEUTICS LIMITED, priority 2016, published 2021)
Converted amounts (≈) assume the structure as drawn. Read-outs that look alike come from different tables or passages of the source. Values belong to the molecule of their own block, whether it stands above or below them.

Experiments:
[1] = test system: HaCat cell line; assay: Cytotoxicity MTT assay; format: cell-based, human
Method: Different dilutions of compounds of the present disclosure in DMSO were used for the MTT assay so that the final concentration of DMSO in the assay was <5%. […] After 3 h incubation, MTT was removed and 100 μl of DMSO was added. Absorbance was measured in an ELISA reader at 570 nm. The assay controls were (a) medium control (medium without cells), (b) negative control (medium with cells but without the experimental compound), (iii) positive control (medium with cells and with 50 μM camptothecin). The experiment was done in triplicates and the data plotted as viability of cells in percentage.

[2] = test system: S. epidermidis ATCC 35984 biofilm; assay: S. epidermidis biofilm disruption assay (MTT); format: cell-based; conditions: for EC50: Staphylococcus epidermidis, ATCC35984, read-out: Concentration (mg/ml) to disrupt 50% biofilm
Method: Materials: Brain heart infusion broth, S. epidermidis ATCC 35984, 96 well plates, Autoclave, Incubator, 0.05% MTT (3-(4,5-Dimethylthiazol-2-yl)-2,5-Diphenyltetrazolium Bromide) reagent prepared in water, Multiwell Plate Reader.
(§1) Method: S. epidermidis ATCC 35984 was grown in Brain Heart Infusion Agar (BHIA) at 37° C. for 24 h. The loop full of bacterial culture was suspended in sterile water and adjusted the turbidity to 0.1 OD at 600 nm in UV—Visual spectrophotometer (approximately 1.5×10^8) and further diluted (100 times with sterile BHI broth), 100 μL of culture suspension was added into 96 well plate and plates were incubated at 37° C. for 48 h for biofilm formation. The biofilm was washed twice with sterile water to remove the planktonic cells. Then biofilm was treated with 100 μL of BHI broth suspended with various concentrations of compounds of the present disclosure, and plates were further incubated at 37° C. for 24 h. The minimum biofilm disruption concentration (MBDC) was determined by staining the biofilm with MTT reagent incubated plates at 37° C. for 2 h. The precipitate was dissolved in 100 μl of dimethyl sulfoxide (DMSO) and the absorbance was measured at 600 nm in multi well plate reader. The minimum biofilm disruption concentration was calculated as subtracting the MTT OD value of drug treated with 48 h growth control.

[3] = test system: E. coli ATCC BAA196 biofilm; assay: E. coli biofilm disruption assay (MTT); format: cell-based; conditions: for Minimum biofilm disruption concentration: 24 h biofilm, 24 h treatment, MTT
Method: Materials: Brain heart infusion broth+1% glucose, Escherichia coli ATCC BAA196, 96 wells plate, Autoclave, Incubator, MTT, Multiwell Plate Reader.
(§2) Method: E. coli ATCC BAA196 was grown in Brain Heart Infusion Agar (BHIA) at 37° C. for 24 h. The loop full of bacterial culture was suspended in sterile water and the turbidity to 0.1 OD at 600 nm in UV—Visual spectrophotometer (approximately 1.5×10^8) and further diluted (100 times with sterile BHI broth+1% glucose), 100 μL of culture suspension was added into 96 well plate and plates were incubated at 37° C. for 24 h for biofilm formation. The biofilm was washed twice with sterile water to remove the planktonic cells. Then biofilm was treated with 100 μL of BHI broth+1% glucose suspended with various concentrations of compounds of the present disclosure, and plates were further incubated at 37° C. for 24 h. The minimum biofilm disruption concentration (MBDC) was determined by staining the biofilm with MTT reagent incubated plates at 37° C. for 2 h, and the precipitate was dissolved in 100 μl of dimethyl sulfoxide (DMSO) and the absorbance was measured at 600 nm in multi well plate reader. The minimum biofilm disruption concentration was calculated by subtracting the MTT OD value of drug treated with 24 h growth control.

[4] = test system: biofilm formed by gram positive, gram negative pathogen; assay: Biofilm disruption activity, general statement; format: cell-based; conditions: embodiment statement
Method: as §1, §2

[5] = test system: S. epidermidis S12-1; assay: MIC by micro broth dilution (CLSI); format: cell-based; conditions: Staphylococcus epidermidis, S121
[6] = test system: S. epidermidis (ATCC-35984); assay: MIC by micro broth dilution (CLSI); format: cell-based
Method: (§3) Materials: Brain heart infusion broth, Bacterial and fungal cultures, 96 wells plate, Autoclave, Incubator. The microbial strains used in the validation study/testing were procured from MTCC (Chandigarh, India)—S. aureus (MTCC-6908), E. coli (MTCC-1687); NCIM (Pune, India)—E. aerogenes (NCIM-5139); ATCC (USA): S. aureus (ATCC-43300), S. epidermidis (ATCC-35984), P. aeruginosa (ATCC-27853), A. baumanii (ATCC-19606), K. pneumoniae (ATCC-13883), E. coli (ATCC-BAA196); CCARM (Korea)—Candida albicans (CCARM-14009), P. aeruginosa (CCARM-2161) and A. baumanii (CCARM-12001).
(§4) Method: MIC of present molecules were determined by micro broth dilution method as per the Clinical and Laboratory Standards Institute (CLSI) guidelines. Microbial strains were cultured in appropriate media [Brain Heart Infusion Agar (BHIA) for bacteria and Sabouraud dextrose broth (SDB) for Candida] at 37° C. for 24 hours. […] For inoculum, microbial culture turbidity was adjusted to 0.1 optical density (OD) at 600 nm in UV—Visual spectrophotometer (approximately 1.5×10^8 cells/ml) and further diluted (100 times with sterile media). Diluted culture suspension (100 μl) was added to each well except sterility control wells (column 12 of 96 well plate). Column 11 of 96 well plate was used as growth control and vehicle control. The plates were incubated at 37° C. for 24 h. The MIC of the test compounds were determined by observing the lowest concentration of test compound that prevented the visual bacterial growth.

[7] = test system: Candida albicans (CCARM-14009); assay: MIC by micro broth dilution (CLSI); format: cell-based; conditions: for MIC: C. albicans CCARM 14009
Method: as §3, §4

[8] = test system: S. aureus (MTCC-6908); assay: MIC by micro broth dilution (CLSI); format: cell-based
Method: as §3, §4

[9] = test system: Bacterial and fungal cultures; assay: MIC test, overall antimicrobial activity in words; format: cell-based; conditions: overall statement on MIC results
Method: as §3
as §4, with “Column 11 of 96 well plate was used as growth control and vehicle control. The plates were incubated at 37° C. for 24 h.” left out

[10] = test system: MRSA; assay: MIC test, text summary against MRSA; format: cell-based, S. aureus
Method: as §3
as §4, with “Column 11 of 96 well plate was used as growth control and vehicle control. The plates were incubated at 37° C. for 24 h.” left out

[11] = test system: E. coli; assay: MIC test, text summary against E. coli (strain not stated); format: cell-based
Method: as §3
as §4, with “Column 11 of 96 well plate was used as growth control and vehicle control. The plates were incubated at 37° C. for 24 h.” left out

[12] = test system: E. coli (MTCC-1687); assay: MIC by micro broth dilution (CLSI); format: cell-based
Method: as §3, §4

[13] = test system: K. pneumoniae [ATCC 1388]; assay: MIC by micro broth dilution (CLSI); format: cell-based
Method: as §3, §4

[14] = test system: E. aerogenes (NCIM-5139); assay: MIC by micro broth dilution (CLSI); format: cell-based
Method: as §3, §4

[15] = test system: S. aureus (ATCC-43300); assay: MIC by micro broth dilution (CLSI); format: cell-based
Method: as §3, §4

[16] = test system: P. aeruginosa (ATCC-27853); assay: MIC by micro broth dilution (CLSI); format: cell-based
Method: as §3, §4

[17] = test system: E. coli (ATCC-BAA196); assay: MIC by micro broth dilution (CLSI); format: cell-based
Method: as §3, §4

[18] = test system: A. baumannii [ATCC 19606]; assay: MIC by micro broth dilution (CLSI); format: cell-based
Method: as §3, §4

[19] = Water solubility as described; format: physicochemical
[20] = test system: Gram positive pathogen; assay: MIC test, text summary against Gram positive pathogens; format: cell-based
Method: as §3
as §4, with “Column 11 of 96 well plate was used as growth control and vehicle control. The plates were incubated at 37° C. for 24 h.” left out

[21] = test system: Gram negative pathogens; assay: MIC test, against Gram negative pathogens; format: cell-based
Method: as §3
as §4, with “Column 11 of 96 well plate was used as growth control and vehicle control. The plates were incubated at 37° C. for 24 h.” left out

[22] = 48 h biofilm, 24 h treatment, MTT
[23] = Staphylococcus epidermidis, ATCC35984, read-out: MIC
[24] = Candida albicans, CCARM14009, read-out: MIC
[25] = Staphylococcus aureus, MTCC6908, read-out: MIC

Compound: N=C(NCCCCCCNC(=N)NC(=N)Nc1ccc(Cl)cc1)NC(=N)Nc1ccc(Cl)cc1 [Chlorohexidine, reference compound]
IC50 in HaCat cell line ([1]; 48 h, MTT): ~200 µg/mL (≈ 396 µM)

EC50 [2, 22]: > 4 mg/mL
Compound: CC(=O)N[C@@H](CS)C(=O)O [NAC, N-acetyl cysteine, reference compound]

EC50 [2, 22]: 0.02 to 0.125 mg/mL (≈ 60.3 to 377 µM)
Compound: CCCCCCCCCCCCSC[C@H](NC(C)=O)C(=O)O [SMP-001, N-Acetyl-S-dodecyl-L-cysteine]
Minimum biofilm disruption concentration [3]: 0.5 to 2.0 mg/mL | biofilm disruption activity [4]: biofilm disruption activity | anti-biofilm activity against S. epidermidis [2]: destroy biofilm effectively

EC50 [2, 22]: 0.01 mg/mL | MIC [5]: 25 µg/mL | MIC [6, 23]: 8 to 13 µg/mL | MIC [7, 24]: 100 µg/mL | MIC [8, 25]: 25 µg/mL
Compound: CCCCCCCCCCCCSC[C@@H](NC(C)=O)C(=O)N(CCCN)CCCN.Cl.Cl [SMP-002, (S)-2-Acetamido-N,N-bis(3-aminopropyl)-3-(dodecylthio)propanamide di-hydrochloride]
Minimum biofilm disruption concentration [3]: 2 to 4 mg/mL | biofilm disruption activity [4]: biofilm disruption activity | anti-biofilm activity against S. epidermidis [2]: maintain anti-biofilm activity like SMP-001

EC50 [2, 22]: > 2 mg/mL | MIC [5]: 50 µg/mL | MIC [6, 23]: 6.25 µg/mL | MIC ([12]; Escherichia coli, MTCC1687, read-out: MIC): 0.8 µg/mL | MIC ([13]; Klebsiella pneumoniae, ATCC1388, read-out: MIC): > 256 µg/mL | MIC ([14]; Klebsiella aerogenes, NCIM5139, read-out: MIC): > 256 µg/mL | MIC ([15]; Staphylococcus aureus, ATCC43300, read-out: MIC): 6.25 µg/mL | MIC ([16]; Pseudomonas aeruginosa, ATCC27853, read-out: MIC): > 256 µg/mL | MIC [7, 24]: 50 µg/mL | MIC ([17]; Escherichia coli, ATCCBAA196, read-out: MIC): 100 µg/mL | MIC [8, 25]: 6.25 µg/mL | MIC ([18]; Acinetobacter baumannii, ATCC19606, read-out: MIC): > 256 µg/mL | water solubility [19]: water soluble
Compound: CCCCCCCCC/C=C\CCCCCCCCSC[C@@H](NC(C)=O)C(=O)N(CCCN)CCCN.Cl.Cl [SMP-047, (S,Z)-2-Acetamido-N,N-bis(3-aminopropyl)-3-(nonadec-9-en-1-ylthio)propanamide di-hydrochloride]
IC50 ([1]; Homo sapiens, HaCaT, 48 h, MTT): 200 to 400 µg/mL | safety profile in HaCaT cell lines ([1]; compared with PHMB and chlorohexidine): better safety profile | antimicrobial / antibacterial activity [9]: broad spectrum antibacterial activity | biofilm disruption activity [4]: biofilm disruption activity | antibacterial activity against MRSA [10]: potent antibacterial activity | activity towards resistant E. coli [11]: potent | antifungal activity against Candida species [7]: potent antifungal activity

Compound: CCCCCCCCCCCCSC[C@@H](NC(C)=O)C(=O)N(CCCCNC(=O)[C@@H](N)CNC(=N)N)CCCNC(=O)[C@@H](N)CNC(=N)N.Cl [SMP-051]
improvement of antibacterial activity in comparison to SMP-002 [20]: 10-20 fold | IC50 in HaCat cell line ([1]; 48 h, MTT): ~25.0 µg/mL | activity against Gram negative pathogens [21]: very efficient | improvement of antibacterial activity in comparison to SMP-002 ([21]; against Gram negative pathogen): 100-150 fold | antimicrobial / antibacterial activity [9]: broad spectrum antibacterial activity | disruption of E. coli biofilm [3]: the best | Minimum biofilm disruption concentration [3]: 0.25 to 0.5 mg/mL | biofilm disruption activity [4]: biofilm disruption activity | Concentration (mg/ml) to disrupt 50% biofilm [2, 22]: >2 mg/mL | MIC [6]: 1.6 µg/mL | MIC [12]: 1.6 µg/mL | MIC [13]: 8.0 µg/mL | MIC [14]: 8.0 µg/mL | MIC [15]: 6.25 µg/mL | MIC [16]: 16.0 µg/mL | MIC [7]: 200 µg/mL | MIC [17]: 100 µg/mL | MIC [8]: 6.25 µg/mL | MIC [18]: 128.0 µg/mL
